How the values were obtained:
CBA × DBA mice = assay: Embryo survival in CBA × DBA mice, i.p. dosing during gestation; format: in vivo; settings: for % Embryo Survival: assessed day 12
Experimental: Female mice of the CBA strain (obtained from Charles River, UK) were crossed with male mice of the DBA strain (obtained from Charles River, UK) and treated i.p. with 3-ethyl-5-[5-(4-ethylpiperazin-1-ylsulphonyl)-2-n-propoxyphenyl]-2-(pyridin-2-yl)methyl-2,6-dihydro-7H-pyrazolo[4,3-d]pyrimidin-7-one at the rate of either 1 mg/kg or 3′mg/kg on days 1 to 8 of gestation. The mice were euthanised on day 12 of gestation and the numbers of viable and non-viable embryos were determined relative to corresponding control mice.
Female mice of the CBA strain (obtained from Charles River, UK) were crossed with male mice of the DBA strain (obtained from Charles River, UK) and treated i.p. with 3-ethyl-5-[5-(4-ethylpiperazin-1-ylsulphonyl)-2-n-propoxyphenyl]-2-(pyridin-2-yl)methyl-2,6-dihydro-7H-pyrazolo[4,3-d]pyrimidin-7-one at the rate of 1 mg/kg on days 1 to 4 or 4 to 8 of gestation. The mice were euthanised on day 12 of gestation and the numbers of viable and non-viable embryos were determined relative to corresponding control mice.

pregnant rats = assay: Birthweights of rat pups after s.c. dosing of pregnant rats throughout gestation; format: in vivo; settings: for embryonic/foetal growth and birthweight (in words, FIG. 1): s.c. daily 0.3, 1 and 5 mg/kg, gestation days 1-21, pregnant rats; for % increase (birthweights of rat pups): pregnant rats n=10
Experimental: To evaluate the effects of cGMP PDE V inhibition on embryonic and foetal growth, 3-ethyl-5-[5-(4-ethylpiperazin-1-ylsulphonyl)-2-n-propoxyphenyl]-2-(pyridin-2-yl)methyl-2,6-dihydro-7H-pyrazolo[4,3-d]pyrimidin- 7-one was administered s.c. daily in an aqueous micelle formulation at the rate of 0.3, 1 and 5 mg/kg to pregnant rats. The results are illustrated in FIG. 1.
A comparative experiment using a similar protocol was carried out using (A) 3-ethyl-5-[5-(4-ethylpiperazin-1-ylsulphonyl)-2-n-propoxyphenyl]-2-(pyridin-2-yl)methyl-2,6-dihydro-7H-pyrazolo[4,3-d]pyrimidin-7-one and the Lilly-ICOS PDE V inhibitor (B) CILIAS/IC-351. The compounds were administered throughout gestation subcutaneously to pregnant rats (n=10) and the birthweights of their corresponding rat pups were measured.

[1] = system: patients undergoing in vitro fertilisation (IVF) with prior poor endometrial response; settings: Hum. Reprod., 2000, 15(4), 806-809; cited from earlier work
Mini-pigs = assay: Model of uterine blood flow and mean arterial blood pressure in mini-pigs; format: in vivo; settings: intravenous
Excerpt: A model of uterine blood flow was established to assess the effects of PDE V inhibition on uterine flow and mean arterial blood pressure (MAP). Mini-pigs weighing approximately 30 kg were modified surgically. As a means of quantifying real time uterine blood flow a Transoinc blood flow probe was placed around either the left or right uterine artery. Catheters were inserted into a external jugular vein and a carotid artery for blood sampling/administration of compound and measurement of mean arterial blood pressure (MAP) respectively. Test compound was administered intravenously either during oestrous or the luteal phase of the reproductive cycle and the effects of PDE V inhibition on uterine blood flow and MAP were measured. The Y-axis for the two left hand bars is uterine blood flow (ml/min.), and for the two right hand bars is MAP (mmHg).

Friesian cross heifers = assay: Intra-vaginal dosing of Friesian cross heifers: plasma progesterone and uterine horn histology; format: in vivo, cattle; settings: intra-vaginally twice daily, 30 days, uterine horn cross-sections
Experimental: Twenty-seven (27) female Friesian cross heifers, approximately 24 months of age were allocated randomly to three treatment groups control, 50 mg and 250 mg of the PDE V inhibitor administered intra-vaginally twice daily. Oestrous was synchronised using two intramuscular injections of PGF2 alpha (Lutalyse™) administered 11 days apart. The PDE V inhibitor was administered intra-vaginally twice daily from day −3 of oestrus until day 6 of the following oestrus (30 days in total). Blood samples were collected daily, plasma was prepared as soon as possible and stored at −20 DEG C. and then analysed for progesterone. At the completion of the study (ie day 6 of the second oestrous period) the cattle were euthanised and the reproductive tract collected. A cross section of the left and right horns of each uterus was collected and stored in 10% Formalin and then analysed histologically.

[2] = 0.3 mg/kg s.c. throughout gestation
[3] = 1 mg/kg s.c. throughout gestation
[4] = 5 mg/kg s.c. throughout gestation

Compound: CCCOc1ccc(S(=O)(=O)N2CCN(CC)CC2)cc1-c1nc2c(CC)n(Cc3ccccn3)nc2c(=O)[nH]1 [3-ethyl-5-[5-(4-ethylpiperazin-1-ylsulphonyl)-2-n-propoxyphenyl]-2-(pyridin-2-yl)methyl-2,6-dihydro-7H-pyrazolo[4,3-d]pyrimidin-7-one]
- rate of embryo survival (in words) (CBA × DBA mice; days 1-4 or 4-8 of gestation): improved the rate of embryo survival in both cases
- rate of embryo survival and maintenance of pregnancy (in words) (CBA × DBA mice; days 1 to 8 of gestation, CBA×DBA mice): improves significantly the rate of embryo survival and the maintenance of pregnancy
- embryonic/foetal growth and birthweight (in words, FIG. 1) (pregnant rats): promotes embryonic and/or foetal growth and consequently increases birthweight

Compound: CCCc1nn(C)c2c(=O)[nH]c(-c3cc(S(=O)(=O)N4CCN(C)CC4)ccc3OCC)nc12 [sildenafil, 5-[2-ethoxy-5-(4-methyl-1-piperazinylsulphonyl)phenyl]-1-methyl-3-n-propyl-1,6-dihydro-7H-pyrazolo[4,3-d]pyrimidin-7-one]
- uterine artery blood flow and endometrial development [1]: may be effective for improving uterine artery blood flow and endometrial development

Compound: CN1CC(=O)N2[C@H](c3ccc4c(c3)OCO4)c3[nH]c4ccccc4c3C[C@@H]2C1=O [B, (6R, 12aR)-2,3,6,7,12,12a-hexahydro-2-methyl-6-(3,4-methylenedioxyphenyl)-pyrazino[2′,1′:6,1]pyrido[3,4-b]indole-1,4-dione, reference compound]
- % increase (birthweights of rat pups) (pregnant rats; [2]): 0%
- % increase (birthweights of rat pups) (pregnant rats; [3]): 1%
- % increase (birthweights of rat pups) (pregnant rats; [4]): 5%

Compound: CCCOc1ccc(S(=O)(=O)N2CCN(CC)CC2)cc1-c1nc2c(CC)n(Cc3ccccn3)nc2c(=O)[nH]1 [A, 3-ethyl-5-[5-(4-ethylpiperazin-1-ylsulphonyl)-2-n-propoxyphenyl]-2-(pyridin-2-yl)methyl-2,6-dihydro-7H-pyrazolo[4,3-d]pyrimidin-7-one]
- mean arterial blood pressure (MAP) (FIG. 2) (Mini-pigs): No significant effect on mean arterial blood pressure
- uterine blood flow relative to control (FIG. 2) (Mini-pigs): improves significantly uterine blood relative to control animals
- % Embryo Survival (CBA × DBA mice; 1 mg/kg i.p. daily, days 1-4 of gestation, control 54): 81%
- % Embryo Survival (CBA × DBA mice; 1 mg/kg i.p. daily, days 1-8 of gestation, control 51): 90%
- % Embryo Survival (CBA × DBA mice; 1 mg/kg i.p. daily, days 4-8 of gestation, control 54): 70%
- % Embryo Survival (CBA × DBA mice; 3 mg/kg i.p. daily, days 1-8 of gestation, control 51): 84%
- endometrial epithelial thickness relative to control (FIG. 5) (Friesian cross heifers): increases endometrial epithelial thickness relative to control animals
- % increase (birthweights of rat pups) (pregnant rats; [2]): 2%
- % increase (birthweights of rat pups) (pregnant rats; [3]): 6%
- % increase (birthweights of rat pups) (pregnant rats; [4]): 10%
- % increase (birthweights of rat pups) (pregnant rats; 10 mg/kg s.c. throughout gestation): 12%
- comparison of effectiveness on birth weights of rat pups (pregnant rats; A versus B, s.c. throughout gestation): more effective than compound B
- embryonic/foetal growth and birthweight (in words, FIG. 1) (pregnant rats; listed as 3-ethyl-5-(5-(4-ethylpiperazin-1-ylsulphonyl)-2-n-propoxyphenyl)-2-(pyridin-2-yl)): increases birthweights of rat puts

From patent US6548508B2, “Use of PDE V inhibitors for improved fecundity in mammals” (Pfizer, Inc., priority 2000, dated 2003)
